Data reported in ChEMBL document CHEMBL1131369, “Isoxazolylthioamides as potential immunosuppressants a combinatorial chemistry approach” (Bioorg Med Chem Lett, 1998).

target: Dihydroorotate dehydrogenase (quinone), mitochondrial (Homo sapiens, UniProt Q02127); assay: Immunosuppressive activity expressed as ability to inhibit human recombinant dihydroorotate dehydrogenase (DHODH)
Sequence (Q02127 whole entry): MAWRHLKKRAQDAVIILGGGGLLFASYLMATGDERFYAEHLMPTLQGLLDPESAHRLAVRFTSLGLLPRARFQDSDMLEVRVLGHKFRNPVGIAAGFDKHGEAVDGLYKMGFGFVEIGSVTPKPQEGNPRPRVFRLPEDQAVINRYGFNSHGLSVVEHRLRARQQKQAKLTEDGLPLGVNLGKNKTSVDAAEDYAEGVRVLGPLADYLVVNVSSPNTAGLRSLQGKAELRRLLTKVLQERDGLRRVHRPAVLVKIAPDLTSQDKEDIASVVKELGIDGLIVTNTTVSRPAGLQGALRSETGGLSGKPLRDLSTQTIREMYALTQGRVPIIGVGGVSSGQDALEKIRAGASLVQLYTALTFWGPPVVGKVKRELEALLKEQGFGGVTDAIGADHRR

**Q.** How did the IC50 turn out when `FC(F)(F)Oc1ccc(NC(=S)c2cnoc2C2CCCCC2)cc1` was run?
**A.** The IC50 was over 50 µM.

**Q.** Which IC50 does the source give for `CCc1oncc1/C(S)=N/c1ccc(C(F)(F)F)cc1` here?
**A.** The IC50 was 3 µM.

**Q.** How did the IC50 turn out when `CC(C)(C)c1oncc1/C(S)=N/c1ccc(C(F)(F)F)cc1` was run?
**A.** Its IC50 is over 50 µM.

**Q.** Which IC50 does the source give for `CN(C)c1ccc(NC(=S)c2cnoc2C2CCCCC2)cc1` here?
**A.** The IC50 was over 50 µM.

**Q.** Which IC50 does the source give for `N#Cc1ccc(NC(=S)c2cnoc2C2CC2)cc1` here?
**A.** The IC50 was 9.3 µM.

**Q.** With `CN(C)c1ccc(NC(=S)c2cnoc2C(C)(C)C)cc1` as the molecule, how does the IC50 read?
**A.** Its IC50 is over 50 µM.

**Q.** For `Cc1oncc1C(=S)Nc1ccc(C#N)cc1`, which IC50 is on record?
**A.** Its IC50 is 35 µM.

**Q.** With `CCc1oncc1/C(S)=N/c1ccc(OC(F)(F)F)cc1` as the molecule, how does the IC50 read?
**A.** Its IC50 is 0.7 µM.

**Q.** For `CCCCCCc1oncc1/C(S)=N/c1ccc(C(F)(F)F)cc1`, which IC50 is on record?
**A.** Its IC50 is over 50 µM.

**Q.** For `CN(C)c1ccc(NC(=S)c2cnoc2C2CC2)cc1`, which IC50 is on record?
**A.** Its IC50 is over 50 µM.

**Q.** With `FC(F)(F)Oc1ccc(NC(=S)c2cnoc2C2CC2)cc1` as the molecule, how does the IC50 read?
**A.** Its IC50 is 0.8 µM.

**Q.** How did the IC50 turn out when `CCc1oncc1/C(S)=N/c1ccc(N(C)C)cc1` was run?
**A.** Its IC50 is 40.4 µM.

**Q.** How did the IC50 turn out when `CC(C)(C)c1oncc1/C(S)=N/c1ccc(C#N)cc1` was run?
**A.** The IC50 was over 50 µM.

**Q.** Which IC50 does the source give for `CCCCCCc1oncc1/C(S)=N/c1ccc(OC(F)(F)F)cc1` here?
**A.** Its IC50 is over 50 µM.

**Q.** Which IC50 does the source give for `Cc1oncc1C(=S)Nc1ccc(C(F)(F)F)cc1` here?
**A.** Its IC50 is over 50 µM.

**Q.** Which IC50 does the source give for `Cc1oncc1C(=S)Nc1ccc(N(C)C)cc1` here?
**A.** The IC50 was over 50 µM.

**Q.** How did the IC50 turn out when `Cc1oncc1/C(S)=N/c1ccc(OC(F)(F)F)cc1` was run?
**A.** Its IC50 is 7.2 µM.

**Q.** For `CC(=O)/C(C#N)=C(/S)Nc1ccc(C(F)(F)F)cc1`, which IC50 is on record?
**A.** Its IC50 is 0.8 µM.

**Q.** How did the IC50 turn out when `FC(F)(F)c1ccc(NC(=S)c2cnoc2C2CC2)cc1` was run?
**A.** Its IC50 is 3.2 µM.

**Q.** For `CCc1oncc1C(=S)Nc1ccc(C#N)cc1`, which IC50 is on record?
**A.** The IC50 was 11 µM.

**Q.** With `N#Cc1ccc(NC(=S)c2cnoc2C2CCCCC2)cc1` as the molecule, how does the IC50 read?
**A.** Its IC50 is over 50 µM.

**Q.** How did the IC50 turn out when `FC(F)(F)c1ccc(NC(=S)c2cnoc2C2CCCCC2)cc1` was run?
**A.** The IC50 was over 50 µM.

**Q.** With `CCCCCCc1oncc1C(=S)Nc1ccc(N(C)C)cc1` as the molecule, how does the IC50 read?
**A.** The IC50 was over 50 µM.

**Q.** With `CC(C)(C)c1oncc1C(=S)Nc1ccc(OC(F)(F)F)cc1` as the molecule, how does the IC50 read?
**A.** The IC50 was over 50 µM.

**Q.** How did the IC50 turn out when `CCCCCCc1oncc1C(=S)Nc1ccc(C#N)cc1` was run?
**A.** The IC50 was over 50 µM.

species on record: Mus musculus; assay: Compound was tested in vitro for immunosuppressive activity which was measured in the mouse mixed lymphocyte reaction; type: functional

**Q.** With `Cc1oncc1C(=S)Nc1ccc(C(F)(F)F)cc1` as the molecule, how does the IC50 read?
**A.** The IC50 was 23 µM.

**Q.** `CC(=O)/C(C#N)=C(/S)Nc1ccc(C(F)(F)F)cc1` was tested. Which IC50 did it give?
**A.** Its IC50 is 11 µM.

**Q.** `C/C(O)=C(/C#N)C(=O)Nc1ccc(C(F)(F)F)cc1` was tested. Which IC50 did it give?
**A.** The IC50 was 10 µM.
